Measurements as given in ChEMBL document CHEMBL4052631, “Synthesis of selective 11β-HSD1 inhibitors based on dammarane scaffold” (Eur J Med Chem, 2017).

Key:
[1] = biological target: 11-beta-hydroxysteroid dehydrogenase 1 (Mus musculus) (UniProt P50172); details: at 1 µM
Description: Inhibition of full-length mouse 11beta-HSD1 expressed in HEK293 microsomal fraction at 1 uM using [3H]cortisone as substrate after 1 hr by scintillation proximity assay relative to control

[2] = biological target: T1, 11-beta-hydroxysteroid dehydrogenase 1 (Homo sapiens, UniProt P28845); test: Inhibition of full-length human 11beta-HSD1 expressed in HEK293 microsomal fraction using [3H]cortisone as substrate after 2 hr by scintillation proximity assay
Target sequence in this assay (P28845 whole entry): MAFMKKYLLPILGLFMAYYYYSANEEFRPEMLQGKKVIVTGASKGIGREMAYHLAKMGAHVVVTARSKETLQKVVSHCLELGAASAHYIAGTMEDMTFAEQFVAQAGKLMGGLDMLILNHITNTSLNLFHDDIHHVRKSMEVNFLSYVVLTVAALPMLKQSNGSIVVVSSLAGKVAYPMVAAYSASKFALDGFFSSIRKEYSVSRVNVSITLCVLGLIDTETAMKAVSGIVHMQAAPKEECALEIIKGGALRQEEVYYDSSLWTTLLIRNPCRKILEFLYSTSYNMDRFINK

[3] = biological target: T2, 11-beta-hydroxysteroid dehydrogenase type 2 (Homo sapiens, UniProt P80365); test: Inhibition of full-length human 11beta-HSD2 expressed in HEK293 microsomal fraction using [3H]cortisone as substrate after 2 hr by scintillation proximity assay; format: cell-based
T2 sequence (P80365 whole entry): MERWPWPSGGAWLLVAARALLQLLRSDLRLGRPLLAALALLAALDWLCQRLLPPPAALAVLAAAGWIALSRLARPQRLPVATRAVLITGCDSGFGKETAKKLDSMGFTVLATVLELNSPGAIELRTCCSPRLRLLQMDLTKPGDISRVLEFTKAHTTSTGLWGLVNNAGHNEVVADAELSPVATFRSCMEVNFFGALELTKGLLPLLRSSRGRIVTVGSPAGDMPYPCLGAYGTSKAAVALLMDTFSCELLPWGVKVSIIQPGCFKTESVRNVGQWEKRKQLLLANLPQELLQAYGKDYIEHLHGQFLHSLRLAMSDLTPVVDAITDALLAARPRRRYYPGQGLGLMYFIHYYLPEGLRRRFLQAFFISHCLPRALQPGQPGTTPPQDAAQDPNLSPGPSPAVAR

[4] = biological target: T1, 11-beta-hydroxysteroid dehydrogenase 1; details: HEK293, at 1 µM
Target sequence in this assay (P28845 whole entry, looked up): as the sequence (P28845 whole entry) above
Description: Inhibition of full-length human 11beta-HSD1 expressed in HEK293 microsomal fraction at 1 uM using [3H]cortisone as substrate after 2 hr by scintillation proximity assay relative to control

[5] = biological target: T3, 11-beta-hydroxysteroid dehydrogenase 1 (Mus musculus, UniProt P50172); test: Inhibition of full-length mouse 11beta-HSD1 expressed in HEK293 microsomal fraction […] after 1 hr by scintillation proximity assay
[6] = biological target: T4, 11-beta-hydroxysteroid dehydrogenase type 2 (Mus musculus, UniProt P51661); test: Inhibition of full-length mouse 11beta-HSD2 expressed in HEK293 microsomal fraction […] after 1 hr by scintillation proximity assay
T4 sequence (P51661 whole entry): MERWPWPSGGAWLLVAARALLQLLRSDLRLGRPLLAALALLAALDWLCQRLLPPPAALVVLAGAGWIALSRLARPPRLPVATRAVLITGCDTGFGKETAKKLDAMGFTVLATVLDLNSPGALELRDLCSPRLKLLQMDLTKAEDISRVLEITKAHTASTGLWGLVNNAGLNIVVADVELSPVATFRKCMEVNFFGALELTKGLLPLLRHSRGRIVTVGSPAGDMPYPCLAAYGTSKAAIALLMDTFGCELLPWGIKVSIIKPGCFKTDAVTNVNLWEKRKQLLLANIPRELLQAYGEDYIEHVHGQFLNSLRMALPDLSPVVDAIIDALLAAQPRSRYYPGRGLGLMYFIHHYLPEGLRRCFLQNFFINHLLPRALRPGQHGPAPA

[7] = biological target: T1, 11-beta-hydroxysteroid dehydrogenase 1; test: Inhibition of human N-terminal His-tagged 11beta-HSD1 expressed in Escherichia coli using cortisol as substrate by fluorescence-based assay
Target sequence in this assay (P28845 whole entry): as the sequence (P28845 whole entry) above

[8] = biological target: T3, 11-beta-hydroxysteroid dehydrogenase 1; test: Inhibition of mouse N-terminal His-tagged 11beta-HSD1 expressed in Escherichia coli using cortisol as substrate by fluorescence-based assay

T3 sequence (P50172 whole entry): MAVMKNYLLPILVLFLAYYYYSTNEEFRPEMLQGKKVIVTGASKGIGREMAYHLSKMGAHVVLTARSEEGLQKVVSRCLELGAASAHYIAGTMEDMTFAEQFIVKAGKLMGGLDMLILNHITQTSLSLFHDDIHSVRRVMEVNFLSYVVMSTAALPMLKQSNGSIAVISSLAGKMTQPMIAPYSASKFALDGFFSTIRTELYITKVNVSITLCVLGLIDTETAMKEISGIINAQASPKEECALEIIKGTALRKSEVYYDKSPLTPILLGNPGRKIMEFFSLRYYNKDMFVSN
Sequence of 11-beta-hydroxysteroid dehydrogenase 1 (Mus musculus) (P50172 whole entry, looked up): as the sequence (P50172 whole entry) above

| Structure (SMILES) | inhibition [1] | other results |
| --- | --- | --- |
| CC(=O)O[C@H]1CC[C@]2(C)[C@H]3C[C@@H](OC(C)=O)[C@@H]4[C@@H](O)CC[C@@]4(C)[C@]3(C)CC[C@H]2C1(C)C | 13.3% | – |
| CCC(=O)CC[C@]1(C)C(=O)[C@H](O)C[C@@H]2[C@@]3(C)CC[C@H](OC(C)=O)C(C)(C)[C@@H]3CC[C@]21C | 11.5% | IC50 [2]: 729 nM; IC50 [3]: 6.26 µM; inhibition [4]: 54.3% |
| CC1(C)[C@@H](O)CC[C@]2(C)[C@H]3C[C@@H](O)[C@]45O[C@H]4CC[C@@]5(C)[C@]3(C)CC[C@@H]12 | 16.9% | – |
| CC(=O)O[C@H]1CC[C@]2(C)[C@H]3C[C@@H](OC(C)=O)[C@@H]4[C@@H](C(=O)CF)CC[C@@]4(C)[C@]3(C)CC[C@H]2C1(C)C | 11.9% | – |
| CCC(=O)CC[C@]1(C)C(=O)[C@H](OC(C)=O)C[C@@H]2[C@@]3(C)CC[C@H](OC(C)=O)C(C)(C)[C@@H]3CC[C@]21C | 13.3% | – |
| CC(=O)[C@H]1CC[C@]2(C)[C@@H]1[C@H](O)C[C@@H]1[C@@]3(C)CCC(=O)OC(C)(C)[C@@H]3CC[C@]12C | 27.6% | – |
| CC(=O)OCO[C@@H]1C[C@@H]2[C@@]3(C)CC[C@H](O)C(C)(C)[C@@H]3CC[C@@]2(C)[C@]2(C)CCC(=O)[C@@H]12 | 20.9% | – |
| CC1(C)[C@@H](O)CC[C@]2(C)[C@H]3C[C@@H](O)[C@@H]4[C@@H](CO)CC[C@@]4(C)[C@]3(C)CC[C@@H]12 | 57.9% | IC50 [5]: 476 nM; IC50 [6]: > 10 µM |
| CC(C)(O)[C@@H]1CC[C@]2(C)[C@H](C[C@@H](O)[C@@H]3[C@@H](O)CC[C@]32C)[C@@]1(C)CCCO | 16.1% | – |
| CC(C)CCCC(=O)[C@H]1CC[C@]2(C)[C@@H]1[C@H](O)C[C@@H]1[C@@]3(C)CC[C@H](O)C(C)(C)[C@@H]3CC[C@]12C | 17.3% | – |
| COC(=O)[C@H]1CC[C@]2(C)[C@@H]1[C@H](O)C[C@@H]1[C@@]3(C)CC[C@H](O)C(C)(C)[C@@H]3CC[C@]12C | 7.69% | – |
| CC1(C)[C@@H](O)CC[C@]2(C)[C@H]3C[C@@H](O)[C@@H]4[C@@H](Cl)CC[C@@]4(C)[C@]3(C)CC[C@@H]12 | 35.8% | – |
| CC1(C)[C@@H](O)CC[C@]2(C)[C@H]3C[C@@H](O)[C@@H]4CCC[C@@]4(C)[C@]3(C)CC[C@@H]12 | 58.4% | IC50 [5]: 592 nM; IC50 [6]: > 100 µM |
| CC1(C)[C@@H](O)CC[C@]2(C)[C@H]3C[C@H]4OC[C@H]5CC[C@](C)([C@@H]54)[C@]3(C)CC[C@@H]12 | 44.9% | – |
| CC(=O)[C@H]1CC[C@]2(C)[C@@H]1[C@H](O)C[C@@H]1[C@@]3(C)CC[C@H](O)C(C)(C)[C@@H]3CC[C@]12C | 27.1% | – |
| CO[C@H]1CC(=O)[C@]2(C)[C@@H]1[C@H](OC(C)=O)C[C@@H]1[C@@]3(C)CC[C@H](O)C(C)(C)[C@@H]3CC[C@]12C | – | IC50 [5]: 400 nM |
| CC1=C2CC[C@]3(C)[C@@H]2[C@@H](C[C@@H]2[C@@]4(C)CC[C@H](O)C(C)(C)[C@@H]4CC[C@]23C)OCO1 | 15.5% | – |
| CC1(C)CCC[C@]2(C)[C@H]3C[C@@H](O)[C@@H]4[C@@H](O)CC[C@@]4(C)[C@]3(C)CC[C@@H]12 | 6.25% | – |
| CC(=O)O[C@H]1CC[C@]2(C)[C@H]3C[C@@H](OC(C)=O)[C@@H]4[C@@H](C(=O)CCCC(C)C)CC[C@@]4(C)[C@]3(C)CC[C@H]2C1(C)C | 10.8% | IC50 [2]: 101 nM; inhibition [4]: 81.1% |

| Structure (SMILES) | inhibition [1] | other results |
| --- | --- | --- |
| CC(C)(O)[C@@H]1CC[C@]2(C)[C@H](C[C@@H](O)[C@@H]3[C@@H](O)CC[C@]32C)[C@@]1(C)CCC(=O)O | 20.8% | – |
| CC1(C)[C@@H](O)CC[C@]2(C)[C@H]3C[C@@H](O)[C@@H]4[C@@H](C(=O)CO)CC[C@@]4(C)[C@]3(C)CC[C@@H]12 | 32.2% | – |
| CC(=O)O[C@H]1CC[C@]2(C)[C@H]3C[C@@H](O)[C@@H]4[C@@H](C(C)=O)CC[C@@]4(C)[C@]3(C)CC[C@H]2C1(C)C | 60.9% | IC50 [5]: 454 nM; IC50 [6]: > 10 µM |
| CC(=O)O[C@H]1CC[C@]2(C)[C@H]3C[C@@H](O)[C@@H]4[C@@H](O)CC[C@@]4(C)[C@]3(C)CC[C@H]2C1(C)C | 79% | IC50 [5]: 213 nM; IC50 [2]: 994 nM; IC50 [6]: > 10 µM; IC50 [3]: > 10 µM; inhibition [4]: 51.6% |
| CC(=O)O[C@H]1CC[C@]2(C)[C@H]3C[C@@H](OC(C)=O)C4=CCC[C@@]4(C)[C@]3(C)CC[C@H]2C1(C)C | 15.4% | – |
| CC1(C)[C@@H](O)CC[C@]2(C)[C@H]3C[C@@H](O)[C@@H]4[C@@H](O)CC[C@@]4(C)[C@]3(C)CC[C@@H]12 | 28.2% | – |
| CC1(C)[C@@H](O)CC[C@]2(C)[C@H]3C[C@@H](O)[C@@H]4[C@@H](C(=O)O)CC[C@@]4(C)[C@]3(C)CC[C@@H]12 | 15.1% | – |
| COCO[C@H]1CC[C@]2(C)[C@H]3C[C@@H](OCOC)[C@@H]4[C@@H](C(C)=O)CC[C@@]4(C)[C@]3(C)CC[C@H]2C1(C)C | 11.5% | – |
| CC(=O)O[C@H]1CC[C@]2(C)[C@H]3C[C@@H](OC(C)=O)[C@@H]4[C@@H](Cl)CC[C@@]4(C)[C@]3(C)CC[C@H]2C1(C)C | 8.02% | – |
| CC1=CC[C@@]2(CC1O)[C@@H](C(=O)O)CC[C@H]2C(C)C (stereo partly drawn) | – | IC50 [7]: 13 nM; IC50 [8]: 460 nM |
| CC(=O)[C@]1(O)CC[C@]2(C)[C@@H]1[C@H](O)C[C@@H]1[C@@]3(C)CC[C@H](O)C(C)(C)[C@@H]3CC[C@]12C | 65.7% | IC50 [5]: 601 nM; IC50 [6]: > 10 µM |
| CC1(C)[C@@H](O)CC[C@]2(C)[C@H]3CC(=O)C4=CCC[C@@]4(C)[C@]3(C)CC[C@@H]12 | 47.4% | IC50 [2]: 1050 nM; IC50 [3]: 9.58 µM; inhibition [4]: 50.2% |
| CC(=O)O[C@H]1CC[C@]2(C)[C@H]3C[C@@H](OC(C)=O)[C@@H]4[C@@H](C(C)=O)CC[C@@]4(C)[C@]3(C)CC[C@H]2C1(C)C | 40.9% | IC50 [2]: 244 nM; inhibition [4]: 69.4% |
| CC1(C)[C@@H](O)CC[C@]2(C)[C@H]3C[C@@H](O)C4=CCC[C@@]4(C)[C@]3(C)CC[C@@H]12 | 33.2% | – |
| CC(=O)O[C@H]1CC[C@]2(C)[C@H]3C[C@@H](OC(C)=O)[C@@H]4[C@@H](C(=O)CO)CC[C@@]4(C)[C@]3(C)CC[C@H]2C1(C)C | 20.1% | IC50 [2]: 488 nM; inhibition [4]: 62.6% |
| CC1(C)C=CC[C@]2(C)[C@H]3C[C@@H](O)[C@@H]4[C@@H](O)CC[C@@]4(C)[C@]3(C)CC[C@@H]12 | 40.9% | – |
| CC(=O)O[C@H]1CC[C@]2(C)[C@H]3C[C@@H](OC(C)=O)[C@@H]4C(=O)CC[C@@]4(C)[C@]3(C)CC[C@H]2C1(C)C | 12.5% | – |
| CC1(C)[C@@H](O)CC[C@]2(C)[C@H]3C[C@@H](O)[C@@H]4[C@H](O)CC[C@@]4(C)[C@]3(C)CC[C@@H]12 | 47% | – |
